Where two headings read alike, the source gives them in different places.
Experiments:
[1] = biological target: T1, N-type calcium channel α1B (Cav2.2), β3 and α2δ subunits (Homo sapiens, UniProt Q00975); experiment: Functional assay, antagonism of N-type calcium channel (FDSS calcium mobilization response to KCl depolarization); assay type: cell-based; conditions: for IC50: HEK stable cell line, 50 mM KCl depolarization, six-point concentration-response
T1 construct: expressed in transfected cells
T1 sequence (Q00975 whole entry): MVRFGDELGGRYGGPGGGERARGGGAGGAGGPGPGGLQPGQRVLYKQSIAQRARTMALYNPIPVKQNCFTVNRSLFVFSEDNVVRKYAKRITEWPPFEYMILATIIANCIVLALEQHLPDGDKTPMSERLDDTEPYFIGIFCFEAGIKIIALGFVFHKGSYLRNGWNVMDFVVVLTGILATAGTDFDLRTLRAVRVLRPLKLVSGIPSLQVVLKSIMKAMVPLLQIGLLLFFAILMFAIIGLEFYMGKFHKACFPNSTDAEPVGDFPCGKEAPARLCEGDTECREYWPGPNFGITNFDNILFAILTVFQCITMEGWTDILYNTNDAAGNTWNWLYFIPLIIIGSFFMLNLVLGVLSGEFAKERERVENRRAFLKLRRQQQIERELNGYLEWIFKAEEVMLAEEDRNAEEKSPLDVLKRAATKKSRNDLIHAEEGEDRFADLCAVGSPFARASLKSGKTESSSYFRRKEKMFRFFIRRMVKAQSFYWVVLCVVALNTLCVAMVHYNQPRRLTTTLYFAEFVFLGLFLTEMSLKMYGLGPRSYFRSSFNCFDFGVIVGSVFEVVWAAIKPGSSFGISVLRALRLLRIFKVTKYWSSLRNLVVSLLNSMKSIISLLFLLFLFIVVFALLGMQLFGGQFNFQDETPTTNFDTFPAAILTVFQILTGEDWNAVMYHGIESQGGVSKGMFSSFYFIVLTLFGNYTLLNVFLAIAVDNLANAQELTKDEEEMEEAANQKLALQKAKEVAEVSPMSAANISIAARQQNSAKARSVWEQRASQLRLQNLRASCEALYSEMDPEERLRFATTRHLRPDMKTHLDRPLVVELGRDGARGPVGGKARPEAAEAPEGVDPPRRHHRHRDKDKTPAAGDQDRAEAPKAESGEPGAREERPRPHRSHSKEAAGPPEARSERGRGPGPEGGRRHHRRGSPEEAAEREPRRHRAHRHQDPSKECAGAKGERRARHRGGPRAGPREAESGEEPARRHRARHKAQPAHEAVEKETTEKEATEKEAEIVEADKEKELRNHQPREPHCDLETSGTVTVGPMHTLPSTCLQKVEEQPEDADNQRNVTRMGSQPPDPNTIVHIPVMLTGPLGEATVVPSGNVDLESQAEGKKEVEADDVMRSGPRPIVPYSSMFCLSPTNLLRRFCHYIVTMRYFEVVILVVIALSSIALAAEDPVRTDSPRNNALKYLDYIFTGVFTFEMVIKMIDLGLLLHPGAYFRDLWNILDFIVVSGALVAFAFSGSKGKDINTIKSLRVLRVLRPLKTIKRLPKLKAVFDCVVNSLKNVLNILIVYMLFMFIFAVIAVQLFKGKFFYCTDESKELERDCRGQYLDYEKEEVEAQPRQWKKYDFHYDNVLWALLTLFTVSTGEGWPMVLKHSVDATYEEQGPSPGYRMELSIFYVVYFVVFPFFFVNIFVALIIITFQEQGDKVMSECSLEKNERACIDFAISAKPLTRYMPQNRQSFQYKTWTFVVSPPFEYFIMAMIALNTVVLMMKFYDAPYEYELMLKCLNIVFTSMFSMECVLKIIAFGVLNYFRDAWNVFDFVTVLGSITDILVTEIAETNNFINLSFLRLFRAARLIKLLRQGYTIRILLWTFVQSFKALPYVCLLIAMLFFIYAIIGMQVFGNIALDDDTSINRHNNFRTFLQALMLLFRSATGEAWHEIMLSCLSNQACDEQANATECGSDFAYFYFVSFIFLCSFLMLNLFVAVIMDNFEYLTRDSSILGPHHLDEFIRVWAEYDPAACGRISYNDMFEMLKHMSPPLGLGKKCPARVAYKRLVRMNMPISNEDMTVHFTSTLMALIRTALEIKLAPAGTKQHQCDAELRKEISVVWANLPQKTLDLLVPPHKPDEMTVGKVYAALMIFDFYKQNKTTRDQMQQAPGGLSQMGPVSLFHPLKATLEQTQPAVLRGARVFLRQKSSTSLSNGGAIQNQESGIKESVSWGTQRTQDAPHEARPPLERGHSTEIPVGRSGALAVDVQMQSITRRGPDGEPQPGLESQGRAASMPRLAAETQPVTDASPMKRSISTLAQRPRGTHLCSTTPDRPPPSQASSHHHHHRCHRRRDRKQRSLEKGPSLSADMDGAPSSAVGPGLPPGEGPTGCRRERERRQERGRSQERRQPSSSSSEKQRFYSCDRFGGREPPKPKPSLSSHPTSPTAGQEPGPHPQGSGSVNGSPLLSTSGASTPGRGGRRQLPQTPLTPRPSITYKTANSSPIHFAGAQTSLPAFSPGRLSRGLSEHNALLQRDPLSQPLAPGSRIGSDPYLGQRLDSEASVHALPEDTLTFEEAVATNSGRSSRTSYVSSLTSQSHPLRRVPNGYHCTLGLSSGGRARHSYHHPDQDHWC
T1 sequence (P54284 whole entry partner): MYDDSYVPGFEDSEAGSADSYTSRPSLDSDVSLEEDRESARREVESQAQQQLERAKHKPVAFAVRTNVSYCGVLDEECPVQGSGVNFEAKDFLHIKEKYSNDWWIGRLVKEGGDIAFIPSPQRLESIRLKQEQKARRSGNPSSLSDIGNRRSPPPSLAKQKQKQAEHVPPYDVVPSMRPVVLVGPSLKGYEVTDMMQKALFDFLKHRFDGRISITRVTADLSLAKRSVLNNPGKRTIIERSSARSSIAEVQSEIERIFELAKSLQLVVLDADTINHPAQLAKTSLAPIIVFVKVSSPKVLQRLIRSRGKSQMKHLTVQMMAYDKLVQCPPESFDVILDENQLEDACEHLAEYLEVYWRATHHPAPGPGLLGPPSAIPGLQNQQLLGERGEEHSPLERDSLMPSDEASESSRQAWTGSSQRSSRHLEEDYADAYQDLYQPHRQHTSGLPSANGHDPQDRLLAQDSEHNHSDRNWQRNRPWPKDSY
T1 sequence (P54289 25-956 partner limits assumed): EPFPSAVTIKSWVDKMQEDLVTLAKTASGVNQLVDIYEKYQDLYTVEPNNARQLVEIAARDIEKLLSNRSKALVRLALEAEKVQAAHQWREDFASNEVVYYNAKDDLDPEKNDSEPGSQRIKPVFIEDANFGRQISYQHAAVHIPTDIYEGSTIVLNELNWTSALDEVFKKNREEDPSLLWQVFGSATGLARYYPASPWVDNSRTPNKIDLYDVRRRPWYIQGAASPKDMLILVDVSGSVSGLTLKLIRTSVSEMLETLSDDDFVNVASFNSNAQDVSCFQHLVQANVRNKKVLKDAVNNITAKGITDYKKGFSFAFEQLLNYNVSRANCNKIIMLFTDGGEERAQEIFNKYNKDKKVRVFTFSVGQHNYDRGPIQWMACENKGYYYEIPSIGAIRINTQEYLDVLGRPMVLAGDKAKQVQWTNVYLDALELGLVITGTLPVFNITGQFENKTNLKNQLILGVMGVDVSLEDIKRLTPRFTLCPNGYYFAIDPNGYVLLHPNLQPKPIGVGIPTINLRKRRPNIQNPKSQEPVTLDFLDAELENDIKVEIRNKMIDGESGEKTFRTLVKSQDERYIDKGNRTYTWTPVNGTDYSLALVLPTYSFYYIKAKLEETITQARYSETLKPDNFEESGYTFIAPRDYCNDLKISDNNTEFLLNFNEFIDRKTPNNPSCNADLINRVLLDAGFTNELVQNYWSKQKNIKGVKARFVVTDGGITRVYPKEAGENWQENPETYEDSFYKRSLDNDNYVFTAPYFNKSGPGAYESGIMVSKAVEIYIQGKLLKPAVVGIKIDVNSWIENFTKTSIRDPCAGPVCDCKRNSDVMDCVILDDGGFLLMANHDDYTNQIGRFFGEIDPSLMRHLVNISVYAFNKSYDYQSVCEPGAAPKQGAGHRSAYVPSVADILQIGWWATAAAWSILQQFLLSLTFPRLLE
T1 sequence (P54289 957-1103 partner limits assumed): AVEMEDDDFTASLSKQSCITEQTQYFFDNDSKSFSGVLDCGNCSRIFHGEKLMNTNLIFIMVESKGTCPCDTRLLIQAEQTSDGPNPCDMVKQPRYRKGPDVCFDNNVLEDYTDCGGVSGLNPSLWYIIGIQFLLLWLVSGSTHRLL
Outline: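 HEK cells stably co-expressing α1B (Cav2.2), β3 and α2δ subunits were loaded with calcium dye, preincubated with compound for 5 min, then depolarized with 50 mM KCl and read for 3 min by FDSS fluorescence. IC50 from six-point curves, normalized to KCl maximum and buffer minimum.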

N-type calcium channel = biological target: T2, N-type calcium channel (Homo sapiens, UniProt Q00975); experiment: Automated electrophysiology assay (QPatch-HT whole-cell patch clamp); assay type: cell-based
T2 construct: expressed in transfected cells
T2 sequence (Q00975 whole entry): as the sequence (Q00975 whole entry) above
T2 sequence (P54284 whole entry partner): as the sequence (P54284 whole entry partner) above
T2 sequence (P54289 25-956 partner limits assumed): as the sequence (P54289 25-956 partner limits assumed) above
T2 sequence (P54289 957-1103 partner limits assumed): as the sequence (P54289 957-1103 partner limits assumed) above
Description: Cells were grown in T175 flasks to 50%-90% confluence. At the time of use, cells were enzymatically treated with Detachin (Genlantis, San Diego, Calif. USA), centrifuged, rinsed, and resuspended in 293 SFM II media (Life Technologies, Grand Island, N.Y. U.S.A.) supplemented with 25 mM HEPES (Sigma-Aldrich, St. Louis, Mo. U.S.A.) to a concentration of 2-3×10^6 cells/mL. Cells were added to the automated cell preparation station on the QPatch-HT (Sophion Biosciences, North Brunswick, N.J. U.S.A.), and following a 10- to 30-min recovery period with gentle stirring, the assay protocol was initiated. During the automated cell preparation, cells were collected, centrifuged and resuspended in an extracellular (EC) solution containing 132 mM NaCl, 1.8 mM CaCl2, 5.4 mM KCl, 0.8 mM MgCl2, 10 mM glucose, and 10 mM HEPES (pH=7.4), adjusted with sucrose to approximately 315 m0sm. The QPlate was primed with an intracellular solution containing 135 mM CsCl, 10 mM EGTA, 4 MgATP, 0.3 NaGTP, and 20 mM HEPES (pH=7.2), adjusted to approximately 290 m0sm with deionized water and the EC solution. Cells were added to the prepared QPlate wells by robotic pipettes of the QPatch-HT.
For cells determined to be in stable whole-cell patch clamp, the EC solution was replaced with a barium (Ba)/triethylammonium (TEA) solution containing 140 mM TEA-Cl, 10 mM BaCl2, 0.8 mM MgCl2, 10 mM glucose and 10 mM HEPES (pH=7.4). High (40 mM) BaCl2 concentrations were made with adjustments to TEA-C1 (90 mM) to maintain the osmolarity. From a resting potential of −80 mV, a train of depolarizing pulses (15 pulses at 5 Hz, +20 mV) was delivered to the cell once every 30 sec for eight trains (4 min total), and the resulting currents were measured during a control period (no compound). This protocol was repeated for each subsequent addition of control buffer with or without compound (three periods total, each with four trains). The current generated in the 1st and 15th pulses of the last train of each period in the presence of each drug concentration was normalized to the current generated during the control period at the respective pulses (representing low- and high-frequency stimulation, respectively). Data from both the second and third drug application periods were analyzed for each cell. A final addition of Ba/TEA solution containing 60-100 μM CdCl2 was made to block all N-type current and to “zero” the currents for each cell. All buffer/compound additions were made using a “spitting” feature of the QPatch-HT, which added three repetitions of 5 μL solution at the beginning of each recording period.
To examine closed-state inactivation, cells were subjected to a channel-activating 50-msec depolarizing step pulse from −80 to +10 mV, followed by a 5-sec nonactivating step to voltages ranging from −130 to −60 mV in 10 mV increments and then a 50-ms step from −80 to +10 mV to assess the remaining current. Currents from the activating voltage pulse were normalized to the peak value of the test pulse following the −130 mV step and fit to a Boltzman equation to obtain the V1/2. Roscovitine (Sigma-Aldrich) was prepared as a 100 mM stock in dimethyl sulfoxide and diluted to the indicated working concentrations. […]. Compounds of Formula (I) were diluted first into dimethyl sulfoxide and then into 10% pluronic F-127 in water (Life Technologies), sonicated for 1 min and diluted into EC buffer. Vehicle controls were run in parallel in all experiments.
Unless otherwise indicated, statistics for comparing among electrophysiological results utilized a one-way analysis of variance with Fisher's least squares determination test for pair-wise comparison.

[2] = high frequency (15th pulse of train, 5 Hz), read-out: QPatch at High Frequency % Inhibition
[3] = low frequency (1st pulse of train), read-out: QPatch at Low Frequency % Inhibition

IC50 [1] [nM] | inhibition at 0.25 µM (N-type calcium channel; [2]) [%] | inhibition at 0.25 µM (N-type calcium channel; [3]) [%] | inhibition at 0.33 µM ([1]; 0.33 μM compound, FDSS, 50 mM KCl) [%] | inhibition at 0.1 µM (N-type calcium channel; [2]) [%] | inhibition at 0.1 µM (N-type calcium channel; [3]) [%] | inhibition at 1 µM (N-type calcium channel; [2]) [%] | inhibition at 1 µM (N-type calcium channel; [3]) [%] | SMILES
27 | 42 | 22 |  |  |  |  |  | CC(C)S(=O)(=O)N1Cc2nn(-c3ccccc3OC(F)(F)F)c(-c3ccc(Cl)cc3)c2C1 [Cpd 35, 3-(4-Chlorophenyl)-5-[(1-methylethyl)sulfonyl]-2-[2-(trifluoromethoxy)phenyl]-2,4,5,6-tetrahydropyrrolo[3,4-c]pyrazole]
15 | 58 | 42 |  |  |  |  |  | COc1ccccc1-n1nc2c(c1-c1ccc(Cl)cc1)CN(S(=O)(=O)CC(F)(F)F)C2 [Cpd 36, 3-(4-Chlorophenyl)-2-(2-methoxyphenyl)-5-[(2,2,2-trifluoroethyl)sulfonyl]-2,4,5,6-tetrahydropyrrolo[3,4-c]pyrazole]
16 | 73 | 61 |  |  |  |  |  | COc1ccccc1-n1nc2c(c1-c1ccc(Cl)cc1)CN(S(=O)(=O)C1CCCCC1)C2 [Cpd 37, 3-(4-Chlorophenyl)-5-(cyclohexylsulfonyl)-2-(2-methoxyphenyl)-2,4,5,6-tetrahydropyrrolo[3,4-c]pyrazole]
12 | 69 | 57 |  |  |  |  |  | COc1ccccc1-n1nc2c(c1-c1ccc(Cl)cc1)CN(S(=O)(=O)C1CCCC1)C2 [Cpd 40, 3-(4-Chlorophenyl)-5-(cyclopentylsulfonyl)-2-(2-methoxyphenyl)-2,4,5,6-tetrahydropyrrolo[3,4-c]pyrazole]
19 |  |  | 90 | 40 | 7 | 91 | 80 | CCCC(C)S(=O)(=O)N1Cc2nn(-c3ccccc3OC)c(-c3ccc(Cl)cc3)c2C1 (stereo not drawn) [Cpd 41, 3-(4-Chlorophenyl)-2-(2-methoxyphenyl)-5-[(1-methylbutyl)sulfonyl]-2,4,5,6-tetrahydropyrrolo[3,4-c]pyrazole]
9 |  |  |  | -5 | -2 |  |  | COc1ccccc1-n1nc2c(c1-c1ccc(Cl)cc1)CN(S(=O)(=O)CCNS(C)(=O)=O)C2 [Cpd 44, N-(2-{[3-(4-Chlorophenyl)-2-(2-methoxyphenyl)-2,6-dihydropyrrolo[3,4-c]pyrazol-5(4H)-yl]sulfonyl}ethyl)methanesulfonamide]
13 |  |  |  | 26 | 26 |  |  | COc1ccccc1-n1nc2c(c1-c1ccc(Cl)cc1)CN(S(=O)(=O)CCNS(=O)(=O)C(C)C)C2 [Cpd 45, N-(2-{[3-(4-Chlorophenyl)-2-(2-methoxyphenyl)-2,6-dihydropyrrolo[3,4-c]pyrazol-5(4H)-yl]sulfonyl}ethyl)propane-2-sulfonamide]
5 |  |  |  | -6 | -8 |  |  | COc1ccccc1-n1nc2c(c1-c1ccc(Cl)cc1)CN(S(=O)(=O)CCNS(=O)(=O)N(C)C)C2 [Cpd 46, N′-(2-{[3-(4-Chlorophenyl)-2-(2-methoxyphenyl)-2,6-dihydropyrrolo[3,4-c]pyrazol-5(4H)-yl]sulfonyl}ethyl)-N,N-dimethylsulfamide]
31 |  |  |  | 36 | 8 |  |  | COC(=O)CCS(=O)(=O)N1Cc2nn(-c3ccccc3OC(F)(F)F)c(-c3ccc(Cl)cc3)c2C1 [Cpd 47, Methyl 3-{[3-(4-chlorophenyl)-2-[2-(trifluoromethoxy)phenyl]-2,6-dihydropyrrolo[3,4-c]pyrazol-5(4H)-yl]sulfonyl}propanoate]
2 |  |  |  | 22 | 18 |  |  | CCOc1ccccc1-n1nc2c(c1-c1ccc(Cl)cc1)CN(S(C)(=O)=O)C2 [Cpd 49, 3-(4-Chlorophenyl)-2-(2-ethoxyphenyl)-5-(methylsulfonyl)-2,4,5,6-tetrahydropyrrolo[3,4-c]pyrazole]
3 |  |  |  | 50 | 42 |  |  | CCOc1ccccc1-n1nc2c(c1-c1ccc(Cl)cc1)CN(S(=O)(=O)C(C)C)C2 [Cpd 50, 3-(4-Chlorophenyl)-2-(2-ethoxyphenyl)-5-[(1-methylethyl)sulfonyl]-2,4,5,6-tetrahydropyrrolo[3,4-c]pyrazole]

Reference: patent US8846949B2, “Pyrrolopyrazoles as N-type calcium channel blockers” (Janssen Pharmaceutica NV, priority 2012, dated 2014)
